From ChEMBL document CHEMBL1629523, “Synthesis and antibacterial activity of C-12 pyrazolinyl spiro ketolides” (2010)
In brackets after ≈: the same amount, converted by molar mass.

Legend:
Type in all cases: functional
Staphylococcus aureus [1] = assay: Antibacterial activity against erythromycin-resistant Staphylococcus aureus 5677 by broth microdilution method
Staphylococcus aureus [2] = assay: Antibacterial activity against erythromycin-susceptible Staphylococcus aureus ATCC 29213 by broth microdilution method
Staphylococcus aureus [3] = assay: Antibacterial activity against erythromycin-resistant Staphylococcus aureus AD-08 by broth microdilution method
Staphylococcus aureus [4] = assay: Antibacterial activity against erythromycin-resistant Staphylococcus aureus 5676 by broth microdilution method
Streptococcus pneumoniae [5] = assay: Antibacterial activity against erythromycin-resistant Streptococcus pneumoniae 673 by broth microdilution method
Staphylococcus aureus [6] = assay: Antibacterial activity against erythromycin-susceptible Staphylococcus aureus ATCC 6538p by broth microdilution method
Streptococcus pneumoniae [7] = assay: Antibacterial activity against erythromycin-resistant Streptococcus pneumoniae 1210 by broth microdilution method
Staphylococcus aureus [8] = assay: Antibacterial activity against erythromycin-susceptible Staphylococcus aureus 26001 by broth microdilution method
Haemophilus influenzae [9] = assay: Antibacterial activity against erythromycin-susceptible Haemophilus influenzae 5096 by broth microdilution method
Haemophilus influenzae [10] = assay: Antibacterial activity against erythromycin-resistant Haemophilus influenzae 2412 by broth microdilution method
Streptococcus pneumoniae [11] = assay: Antibacterial activity against erythromycin-susceptible Streptococcus pneumoniae 2860 by broth microdilution method
Streptococcus pneumoniae [12] = assay: Antibacterial activity against erythromycin-resistant Streptococcus pneumoniae 5158 by broth microdilution method

Q: For `CC[C@H]1OC(=O)[C@H](C)C(=O)[C@H](C)[C@@H](O[C@@H]2O[C@H](C)C[C@H](N(C)C)[C@H]2O)[C@@](C)(OC)C[C@@H](C)C(=O)[C@H](C)[C@@H](O)C12C=NNC2` (some centres not stated), which MIC (Staphylococcus aureus [1]) is on record?
A: 8 µg/mL (≈ 13.1 µM)

Q: What about the MIC (Staphylococcus aureus [2]) of the same molecule?
A: 0.25 µg/mL (≈ 0.409 µM)

Q: And the MIC (Staphylococcus aureus [3])?
A: 512 µg/mL (≈ 837 µM)

Q: What about the MIC (Staphylococcus aureus [4]) of the same molecule?
A: 4 µg/mL (≈ 6.54 µM)

Q: What about the MIC (Streptococcus pneumoniae [5]) of the same molecule?
A: > 64 µg/mL

Q: And the MIC (Staphylococcus aureus [6])?
A: 0.25 µg/mL (≈ 0.409 µM)

Q: And the MIC (Streptococcus pneumoniae [7])?
A: > 64 µg/mL

Q: And the MIC (Staphylococcus aureus [8])?
A: 0.12 µg/mL (≈ 0.196 µM)

Q: And the MIC (Haemophilus influenzae [9])?
A: 0.06 µg/mL (≈ 0.0981 µM)

Q: And the MIC (Haemophilus influenzae [10])?
A: > 8 µg/mL

Q: And the MIC (Streptococcus pneumoniae [11])?
A: 0.5 µg/mL (≈ 0.817 µM)

Q: And the MIC (Streptococcus pneumoniae [12])?
A: > 64 µg/mL

Q: Which results are given for `CC[C@H]1OC(=O)[C@H](C)C(=O)[C@H](C)[C@@H](O[C@@H]2O[C@H](C)C[C@H](N(C)C)[C@H]2O)[C@](C)(OC)C[C@@H](C)C(=O)[C@H](C)[C@@H](O)C12C=NNC2C` (some centres not stated)?
A: MIC (Staphylococcus aureus [1]): 8 µg/mL (≈ 12.8 µM); MIC (Staphylococcus aureus [2]): 0.5 µg/mL (≈ 0.799 µM); MIC (Staphylococcus aureus [3]): 512 µg/mL (≈ 818 µM); MIC (Staphylococcus aureus [4]): 8 µg/mL (≈ 12.8 µM); MIC (Streptococcus pneumoniae [5]): > 64 µg/mL; MIC (Staphylococcus aureus [6]): 0.25 µg/mL (≈ 0.399 µM); MIC (Streptococcus pneumoniae [7]): > 64 µg/mL; MIC (Staphylococcus aureus [8]): 0.12 µg/mL (≈ 0.192 µM); MIC (Haemophilus influenzae [9]): 0.06 µg/mL (≈ 0.0959 µM); MIC (Haemophilus influenzae [10]): > 8 µg/mL; MIC (Streptococcus pneumoniae [11]): 0.5 µg/mL (≈ 0.799 µM); MIC (Streptococcus pneumoniae [12]): > 64 µg/mL

Q: How did the MIC (Staphylococcus aureus [1]) turn out when `CCOC(=O)C1NN=CC12[C@H](O)[C@@H](C)C(=O)[C@H](C)C[C@@](C)(OC)[C@H](O[C@@H]1O[C@H](C)C[C@H](N(C)C)[C@H]1O)[C@@H](C)C(=O)[C@@H](C)C(=O)O[C@@H]2CC` (some centres not stated) was run?
A: 8 µg/mL (≈ 11.7 µM)

Q: What about the MIC (Staphylococcus aureus [2]) of the same molecule?
A: 0.12 µg/mL (≈ 0.175 µM)

Q: What about the MIC (Staphylococcus aureus [3]) of the same molecule?
A: 512 µg/mL (≈ 749 µM)

Q: And the MIC (Staphylococcus aureus [4])?
A: 8 µg/mL (≈ 11.7 µM)

Q: And the MIC (Streptococcus pneumoniae [5])?
A: 8 µg/mL (≈ 11.7 µM)

Q: And the MIC (Staphylococcus aureus [6])?
A: 0.12 µg/mL (≈ 0.175 µM)

Q: What about the MIC (Streptococcus pneumoniae [7]) of the same molecule?
A: > 64 µg/mL

Q: What about the MIC (Staphylococcus aureus [8]) of the same molecule?
A: 0.12 µg/mL (≈ 0.175 µM)

Q: What about the MIC (Haemophilus influenzae [9]) of the same molecule?
A: 0.06 µg/mL (≈ 0.0877 µM)

Q: What about the MIC (Haemophilus influenzae [10]) of the same molecule?
A: > 8 µg/mL

Q: What about the MIC (Streptococcus pneumoniae [11]) of the same molecule?
A: 0.5 µg/mL (≈ 0.731 µM)

Q: What about the MIC (Streptococcus pneumoniae [12]) of the same molecule?
A: 8 µg/mL (≈ 11.7 µM)

Q: How did the MIC (Staphylococcus aureus [1]) turn out when `CC[C@H]1OC(=O)[C@H](C)C(=O)[C@H](C)[C@@H](O[C@@H]2O[C@H](C)C[C@H](N(C)C)[C@H]2O)[C@](C)(OC)C[C@@H](C)C(=O)[C@H](C)[C@@H](O)C12C=NNC2C(=O)OC` (some centres not stated) was run?
A: 4 µg/mL (≈ 5.97 µM)

Q: And the MIC (Staphylococcus aureus [2])?
A: 0.12 µg/mL (≈ 0.179 µM)

Q: And the MIC (Staphylococcus aureus [3])?
A: 256 µg/mL (≈ 382 µM)

Q: What about the MIC (Staphylococcus aureus [4]) of the same molecule?
A: 4 µg/mL (≈ 5.97 µM)

Q: What about the MIC (Streptococcus pneumoniae [5]) of the same molecule?
A: 8 µg/mL (≈ 11.9 µM)

Q: What about the MIC (Staphylococcus aureus [6]) of the same molecule?
A: 0.12 µg/mL (≈ 0.179 µM)

Q: What about the MIC (Streptococcus pneumoniae [7]) of the same molecule?
A: > 64 µg/mL

Q: What about the MIC (Staphylococcus aureus [8]) of the same molecule?
A: 0.03 µg/mL (≈ 0.0448 µM)

Q: What about the MIC (Haemophilus influenzae [9]) of the same molecule?
A: 0.06 µg/mL (≈ 0.0896 µM)

Q: What about the MIC (Haemophilus influenzae [10]) of the same molecule?
A: > 8 µg/mL

Q: What about the MIC (Streptococcus pneumoniae [11]) of the same molecule?
A: 0.5 µg/mL (≈ 0.746 µM)

Q: And the MIC (Streptococcus pneumoniae [12])?
A: 8 µg/mL (≈ 11.9 µM)

Q: Which results are given for `CC[C@H]1OC(=O)[C@H](C)[C@@H](O[C@H]2C[C@@](C)(OC)[C@@H](O)[C@H](C)O2)[C@H](C)[C@@H](O[C@@H]2O[C@H](C)C[C@H](N(C)C)[C@H]2O)[C@](C)(OC)C[C@@H](C)C(=O)[C@H](C)[C@@H](O)[C@]1(C)O` [CLARITHROMYCIN]?
A: MIC (Staphylococcus aureus [1]): > 1020 µg/mL; MIC (Staphylococcus aureus [2]): 0.25 µg/mL (≈ 0.334 µM); MIC (Staphylococcus aureus [3]): > 1020 µg/mL; MIC (Staphylococcus aureus [4]): > 1020 µg/mL; MIC (Streptococcus pneumoniae [5]): > 16 µg/mL; MIC (Staphylococcus aureus [6]): 0.5 µg/mL (≈ 0.668 µM); MIC (Streptococcus pneumoniae [7]): > 16 µg/mL; MIC (Staphylococcus aureus [8]): ≤ 0.063 µg/mL; MIC (Haemophilus influenzae [9]): 0.06 µg/mL (≈ 0.0802 µM); MIC (Haemophilus influenzae [10]): 8 µg/mL (≈ 10.7 µM); MIC (Streptococcus pneumoniae [11]): 0.125 µg/mL (≈ 0.167 µM); MIC (Streptococcus pneumoniae [12]): > 16 µg/mL

Q: Which MIC (Staphylococcus aureus [1]) does the source give for `CC[C@H]1OC(=O)[C@H](C)[C@@H](O[C@H]2C[C@@](C)(OC)[C@@H](O)[C@H](C)O2)[C@H](C)[C@@H](O[C@@H]2O[C@H](C)C[C@H](N(C)C)[C@H]2O)[C@](C)(O)C[C@@H](C)C(=O)[C@H](C)[C@@H](O)[C@]1(C)O` [ERYTHROMYCIN] here?
A: > 1020 µg/mL

Q: And the MIC (Staphylococcus aureus [2])?
A: 0.5 µg/mL (≈ 0.681 µM)

Q: What about the MIC (Staphylococcus aureus [3]) of the same molecule?
A: > 1020 µg/mL

Q: What about the MIC (Staphylococcus aureus [4]) of the same molecule?
A: > 1020 µg/mL

Q: What about the MIC (Streptococcus pneumoniae [5]) of the same molecule?
A: > 32 µg/mL

Q: And the MIC (Staphylococcus aureus [6])?
A: 0.5 µg/mL (≈ 0.681 µM)

Q: And the MIC (Streptococcus pneumoniae [7])?
A: > 32 µg/mL

Q: What about the MIC (Staphylococcus aureus [8]) of the same molecule?
A: ≤ 0.063 µg/mL

Q: And the MIC (Haemophilus influenzae [9])?
A: 0.06 µg/mL (≈ 0.0818 µM)

Q: What about the MIC (Haemophilus influenzae [10]) of the same molecule?
A: 4 µg/mL (≈ 5.45 µM)

Q: And the MIC (Streptococcus pneumoniae [11])?
A: 0.25 µg/mL (≈ 0.341 µM)

Q: And the MIC (Streptococcus pneumoniae [12])?
A: > 32 µg/mL
